Series [1] relates to L1210 leukemia. Particulars: in words, literature; cited from earlier work.
Series [2] relates to L1210 leukemia (sc). The experiment in a line: Antileukemic screen, L1210 tumour sc, drug ip qd 1-5. As to conditions: for ILS (increase in life span at the LD10): Strain F1, Schedule qd 1-5, at LD10, Table II; for LD10: Strain F1, Schedule qd 1-5, drug ip, Table II; for D40 (drug dose necessary to provide 40% ILS): Strain F1, Schedule qd 1-5, Table II. It is filed as in vivo, mice (C3H/DBA2 F1 hybrids). Details: LD10 / D40 (drug dose necessary to provide 40% ILS): unit not given here. The source says:
(§1) In initial screening a standard drug administration schedule has been employed (ip, qd 1-5) and mice (C3 H/DBA2 F1 hybrids) bred in the laboratory, receive a standard tumor inoculum of 10^5 L1210 cells ip on day 0. After range finding experiments, an LD10 dose has then been derived employing doses separated by 0.05 log.dose units, an acceptable soluble drug formulation (B. F. Cain, R. N. Seelye and G. J. Atwell, J. Med. Chem., 17, 922-930 (1974)) and groups of six tumored mice at each dose level. Deaths occuring before day 8 have been taken as resulting from drug toxicity. From the linear regression relating percent probit-mortality and the logarithms of the corresponding doses, an LD10 value has been derived. Profiles of antileukemic activity have been obtained employing doses separated by 0.09 log.dose intervals. Significant percentage increases in life span of leukemic animals, obtained at and below the LD10 dose, have been linearly correlated with the logarithms of the corresponding doses. The increase in life span (ILS) specified by the life extension-log.dose regression line at the measured LD10 provides a representative measure of antileukemic effectiveness at a standard host load in toxicity (W. A. Denny and B. F. Cain, J. Med. Chem., 21, 430-437 (1978)). For congener selection ILS has been employed as a measure of factor (1) above and LD10 for factor (2). Desirable drug pharmacokinetic properties (factor (3)) have been screened for by employing standard ip drug administration and implanting tumor more remotely; either subcutaneously (sc) or intracerabrally (ic) (B. F. Cain and G. J. Atwell Europ J. Cancer, 10, 539 549 (1974), B. F. Cain and G. J. Atwell, J. Med. Chem., 19 1409-1416 (1976)).
(§2) ILS and LD10=as defined above.
(§3) D40=the drug dose necessary to provide 40% ILS in standard L1210 assays.

Series [3] has as its system Ames bacterial tester strains TA98, TA100, TA1537. It is filed as cell-based. The source says: As clinical cancer chemotherapy improves, and patients live symptom free for longer intervals, it is obviously important that the agents employed are not carcinogenic and capable of disease re-induction.
Series [4] deals with poly.dAT. The experiment in a line: Drug-DNA binding, poly.dAT (AT). The source says: (§4) CT, AT and GC=are relative, inverse measures of compound--DNA binding for calf thymus DNA (CT); poly.dAT (AT) and poly. dGC (GC). (B. C. Baguley and E. M. Falkenhaugh, Nucleic Acids Res., 5, 161-171 (1978), B. F. Cain, B. C. Baguley and W. A. Denny, J. Med. Chem., 21, 658-668 (1978)).
Series [5] relates to L1210 leukemia (ip). The experiment in a line: Antileukemic screen, L1210 tumour ip, drug ip qd 1-5. It is filed as in vivo, mice (C3H/DBA2 F1 hybrids). Details: LD10 / D40 (drug dose necessary to provide 40% ILS): unit not given here. Particulars: for ILS Observed: L1210-ip, qd 1-5, Table III; for ILS (increase in life span at the LD10) / LD10 / D40 (drug dose necessary to provide 40% ILS): Tumour L1210-ip, Table II; for ILS (increase in life span at the LD10): Strain F1, Schedule qd 1-5, at LD10; for LD10: Strain F1, Schedule qd 1-5, drug ip; for D40 (drug dose necessary to provide 40% ILS): Strain F1, Schedule qd 1-5; for Antitumour activity in leukemic animals / Dose potency: in words.
Description: as §1, §2, §3

Series [6] concerns calf thymus DNA. The experiment in a line: Drug-DNA binding, calf thymus DNA (CT).
Description: as §4

Series [7] in a line: Basic pKa measured spectrophotometrically. The class given is physicochemical. As to conditions: 20% aqueous dimethylformamide, spectrophotometric; read-out: pK (basic pKa).
Series [8] can be described thus: Water solubility / ease of formulation. The class given is physicochemical. As to conditions: in words.
Series [9] has as its system TA1537 strain of Salmonella typhimurium. The experiment in a line: Mutagenicity assay in TA1537 strain. Particulars: for Mutagenicity D50: Salmonella typhimurium TA1537; for Mutagenicity M50 (percentage mutation frequency at the D50 (×10^4)): Salmonella typhimurium TA1537, at the D50. From the text: The quantitative measures of mutagenicity employed in the present studies are those detailed in L. R. Ferguson and W. A. Denny, J. Med. Chem., 22, 251-255 (1979) of early QSAR developed in this area.
D50 and M50=quantitative measures derived from mutagenicity assays in TA1537 strain of Salmonella typhimurium, defined in L. R. Ferguson and W. A. Denny, J. Med. Chem., 22, 251-255 (1979). (The values of M50 are percentage mutation frequencies at the D50 (×10^4).)

The subject of series [10] is L1210 leukemia (ic). Description: Intracerebrally implanted L1210. The class given is in vivo, mice. As to conditions: in words.
Description: as §1

The test system of series [11] is poly. dGC. The experiment in a line: Drug-DNA binding, poly.dGC (GC).
Description: as §4

The nature of series [12]: Lipophilic-hydrophilic balance by reversed phase chromatography. The class given is physicochemical. As to conditions: linearly related to 1-octanol/H2O partition coefficients. The source says:
Rm =a measure of the compound's lipophilichydrophilic balance from reversed phase chromatography. Rm is linearly related to partition coefficients obtained in the 1-octanol/H2 O system.

The subject of series [13] is experimental tumour systems. Particulars: in words, literature; cited from earlier work.

Here are results for six compounds from patent US4472582A, “3,5-Disubstituted-4'-(9-acridinylamino)-methane-sulfon-m-anisidide compounds having antitumor properties” (Development Finance Corporation of New Zealand, priority 1979, dated 1984).

Molecules are shown by their SMILES.

`CS(=O)(=O)Nc1ccc(Nc2c3ccccc3nc3ccccc23)cc1` [AMSA, 4'-(9-acridinylamino) methanesulfonanilide]: the “Antitumour activity in L1210 leukemia” value in [1] was “high antitumour activity”.

The pKa is the negative logarithm of the acid dissociation constant. For the compound `CNC(=O)c1cccc2c(Nc3ccc(NS(C)(=O)=O)cc3OC)c3ccc(C)cc3nc12` [Compound 1], in series [2], the “ILS (increase in life span at the LD10)” value turned out to be 30% and the LD10 was found to be 10. In addition, the Direct mutagenicity entry in series [3] is listed as “lack significant mutagenic activity”. Also, the “AT (relative, inverse measure of compound-DNA binding)” value in series [4] amounted to 4.74. Also, in [5], the “ILS Observed” value worked out at 200%, the “ILS (increase in life span at the LD10)” value was 200%, the LD10 was 12 and the “D40 (drug dose necessary to provide 40% ILS)” value came to 3. In series [5], the “Antitumour activity in leukemic animals” value is reported as “unusually high antitumour activity in leukemic animals” and the Dose potency result is reported as “good dose potency”. In addition, the “Antitumour activity in leukemic animals” value in series [5] (listed as 3-methyl-5-methylcarboxamido) is “high experimental antitumor activity”. Further, the “CT (relative, inverse measure of compound-DNA binding)” value in series [6] amounted to 5.53. In addition, in [7], the pKa worked out at 6.6. The Ease of formulation result in [8] is “easily formulable”. In series [9], the “Mutagenicity D50” value came out at 15.3 and the “Mutagenicity M50 (percentage mutation frequency at the D50 (×10^4))” value is on record as 1.0 % (×10^4). In addition, the “Inhibition of intra-cerebrally implanted L1210” value (“Inhibition” for short) in [10] is “inhibit intra-cerebrally implanted L1210”. Further, the “GC (relative, inverse measure of compound-DNA binding)” value in series [11] was determined as 2.76. Besides, in series [12], the Rm (reversed-phase chromatographic lipophilicity) turned out to be 0.32.

In the case of `COc1cc(NS(C)(=O)=O)ccc1Nc1c2ccc(C)cc2nc2c(C(=O)NCC(N)=O)cccc12` [Compound 2], in series [2], the “D40 (drug dose necessary to provide 40% ILS)” value turned out to be 60, the “ILS (increase in life span at the LD10)” value turned out to be 50% and the LD10 came out at 120. The “AT (relative, inverse measure of compound-DNA binding)” value in [4] came out at 6.53. Also, in series [5], the “ILS Observed” value was 200%, the “ILS (increase in life span at the LD10)” value was 200%, the LD10 is given as 120 and the “D40 (drug dose necessary to provide 40% ILS)” value was 10. For the same compound, the “Antitumour activity in leukemic animals” value in series [5] is reported as “unusually high antitumour activity in leukemic animals”. Moreover, the “CT (relative, inverse measure of compound-DNA binding)” value in series [6] is recorded as 6.53. Moreover, the pKa in series [7] stood at 6.58. Moreover, in series [9], the “Mutagenicity D50” value is given as 27.6 and the “Mutagenicity M50 (percentage mutation frequency at the D50 (×10^4))” value is on record as 0 % (×10^4). In addition, the “GC (relative, inverse measure of compound-DNA binding)” value in series [11] was found to be 1.84. Moreover, the Rm (reversed-phase chromatographic lipophilicity) in series [12] is -0.32.

Turning to `COc1cc(NS(C)(=O)=O)ccc1Nc1c2ccc(Cl)cc2nc2c(C(=O)NCC(N)=O)cccc12` [Compound 3], in series [2], the “D40 (drug dose necessary to provide 40% ILS)” value is 175, the “ILS (increase in life span at the LD10)” value is 65% and the LD10 is recorded as 330. In addition, in series [5], the “ILS Observed” value worked out at 120%, the “ILS (increase in life span at the LD10)” value turned out to be 120%, the LD10 is on record as 300 and the “D40 (drug dose necessary to provide 40% ILS)” value came to 25. The pKa in series [7] stood at 5.71. For the same compound, in series [9], the “Mutagenicity D50” value was 12.4 and the “Mutagenicity M50 (percentage mutation frequency at the D50 (×10^4))” value is listed as 0 % (×10^4). Also, in [11], the “GC (relative, inverse measure of compound-DNA binding)” value was 4.91. This compound returned a Rm (reversed-phase chromatographic lipophilicity) in series [12] of -0.23.

On to `CNC(=O)c1ccc2c(Nc3ccc(NS(C)(=O)=O)cc3OC)c3cccc(C)c3nc2c1` [Compound 4], for which, in [2], the “D40 (drug dose necessary to provide 40% ILS)” value was 15, the “ILS (increase in life span at the LD10)” value is given as 100% and the LD10 came to 25. For the same compound, the Direct mutagenicity entry in series [3] is given as “lack significant mutagenic activity”. Besides, the “AT (relative, inverse measure of compound-DNA binding)” value in series [4] was 3.2. In series [5], the “ILS Observed” value is 150%, the “ILS (increase in life span at the LD10)” value came to 150%, the LD10 worked out at 20 and the “D40 (drug dose necessary to provide 40% ILS)” value turned out to be 1. Further, the Dose potency result in series [5] is on record as “good dose potency”. The “Antitumour activity in leukemic animals” value in series [5] (listed as 5-methyl-3-methylcarboxamido) is reported as “high experimental antitumor activity”. Also, in series [7], the pKa turned out to be 6.64. Moreover, the Ease of formulation entry in series [8] is on record as “easily formulable”. Also, in series [9], the “Mutagenicity D50” value is listed as 43.8 and the “Mutagenicity M50 (percentage mutation frequency at the D50 (×10^4))” value is on record as 0.16 % (×10^4). Besides, in series [10], the “Inhibition” value was “inhibit intra-cerebrally implanted L1210”. Besides, in series [12], the Rm (reversed-phase chromatographic lipophilicity) was -0.17.

As for `COc1cc(NS(C)(=O)=O)ccc1Nc1c2ccccc2nc2ccccc12` [m-AMSA, 4'-(9-acridinylamino)-methanesulfon-m-anisidide], the “Antitumour activity in L1210 leukemia” value in [1] is “highly effective in treating L1210 leukemia”. Further, in series [2], the “D40 (drug dose necessary to provide 40% ILS)” value is reported as 8.0, the “ILS (increase in life span at the LD10)” value is 45% and the LD10 amounted to 10. Besides, in series [5], the “ILS (increase in life span at the LD10)” value came to 111%, the LD10 stood at 9 and the “D40 (drug dose necessary to provide 40% ILS)” value was found to be 2.5. Besides, the “Inhibition” value in series [10] was “does not”. For the same compound, in series [13], the “Activity in other experimental tumour systems” value was “has shown promise in a number of other experimental tumour systems”.
